Paper PMC9001978, “Determining the Effects of Differential Expression of GRKs and β-arrestins on CLR-RAMP Agonist Bias” (Frontiers in Physiology, 2022)
Entries after “also recorded” stand apart in the source; their conditions may differ. Each block holds one molecule with its values, some of them ahead of it.

Columns and labels:
CLR-RAMP2 [1] = biological target: T1, CLR-RAMP2 (Homo sapiens, UniProt O60895+Q16602); test: β-arrestin2 recruitment to CLR-RAMP2 (BRET); conditions: HEK293T, n = 3
CLR-RAMP1 [2] = biological target: T2, CLR-RAMP1 (Homo sapiens, UniProt O60894+Q16602); test: β-arrestin1 recruitment to CLR-RAMP1 (BRET); conditions: HEK293T, n = 3
T2 sequence (Q16602 23-461): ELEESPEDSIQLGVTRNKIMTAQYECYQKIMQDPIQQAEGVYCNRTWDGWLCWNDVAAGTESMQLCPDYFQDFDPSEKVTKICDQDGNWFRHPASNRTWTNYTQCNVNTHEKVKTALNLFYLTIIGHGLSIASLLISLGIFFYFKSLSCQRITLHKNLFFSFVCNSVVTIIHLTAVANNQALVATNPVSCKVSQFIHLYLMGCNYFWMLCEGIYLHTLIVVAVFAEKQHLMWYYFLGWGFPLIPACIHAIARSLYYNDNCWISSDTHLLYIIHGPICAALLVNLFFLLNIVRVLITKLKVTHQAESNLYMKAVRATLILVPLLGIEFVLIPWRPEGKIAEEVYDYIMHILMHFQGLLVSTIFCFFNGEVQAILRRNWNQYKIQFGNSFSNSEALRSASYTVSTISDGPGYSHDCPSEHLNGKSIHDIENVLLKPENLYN
T2 sequence (O60894 27-148): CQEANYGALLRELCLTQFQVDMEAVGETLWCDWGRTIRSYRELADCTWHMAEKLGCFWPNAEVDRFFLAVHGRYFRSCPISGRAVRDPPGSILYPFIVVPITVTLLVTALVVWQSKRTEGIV

CLR-RAMP1 [3] = biological target: T2, CLR-RAMP1; test: Internalisation of CLR-RAMP1 (BRET CLR-Nluc / RIT-Venus); conditions: HEK293T, CLR-Nluc + FLAG-RAMP1, RIT-Venus BRET; mean ± SEM, n = 3-4
CLR-RAMP1 [4] = biological target: T2, CLR-RAMP1; test: β-arrestin2 recruitment to CLR-RAMP1 (BRET); conditions: HEK293T, n = 3
CLR-RAMP2 [5] = biological target: T1, CLR-RAMP2; test: cAMP accumulation at CLR-RAMP2
CLR-RAMP3 [6] = biological target: T3, CLR-RAMP3 (Homo sapiens, UniProt O60896+Q16602); parameters: method as in Clark et al., 2021; conditions: AM receptor 2 (AM2R), ref Clark et al., 2021; cited from earlier work
T3 sequence (Q16602 23-461): as the sequence (Q16602 23-461) above
T3 sequence (O60896 24-148): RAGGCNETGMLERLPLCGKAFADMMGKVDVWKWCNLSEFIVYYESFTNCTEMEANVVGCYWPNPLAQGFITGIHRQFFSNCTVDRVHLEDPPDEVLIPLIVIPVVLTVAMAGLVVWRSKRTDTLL

CLR-RAMP2 [7] = biological target: T1, CLR-RAMP2; test: Internalisation of CLR-RAMP2 (BRET CLR-Nluc / RIT-Venus); conditions: HEK293T, CLR-Nluc + FLAG-RAMP2, RIT-Venus BRET; mean ± SEM, n = 3-4
CLR-RAMP3 [8] = biological target: T3, CLR-RAMP3; test: Internalisation of CLR-RAMP3 (BRET CLR-Nluc / RIT-Venus); conditions: HEK293T, CLR-Nluc + FLAG-RAMP3, RIT-Venus BRET; mean ± SEM, n = 4-5
CLR-RAMP2 [9] = biological target: T1, CLR-RAMP2; test: β-arrestin1 recruitment to CLR-RAMP2 (BRET); conditions: HEK293T, n = 3
[10] = test system: Glucagon-like peptide-1 receptor (GLP-1R); test: Effect on GLP-1R internalisation; format: cell-based; conditions: 100 μM, 30 min preincubation
5-HT2CR = conditions: ref He et al., 2021; cited from earlier work
CLR-RAMP complexes [11] = test: Effect of barbadin on cAMP accumulation at CLR-RAMP complexes; format: cell-based; conditions: all agonists, three CLR-RAMP complexes
[12] = test system: protease-activated receptor 2 (PAR2); conditions: ref Jung et al., 2021; cited from earlier work
From the text: (§1) The data we have obtained related to agonist-dependent internalisation of CLR in the presence of barbadin (Figure 3C) appear contradictory when compared to our results obtained with the HEK293∆β-arr1/2 cell lines (Figure 4A).

[13] = test system: angiotensin-II type-1 receptor (AT1R); conditions: ref Beautrait et al., 2017; cited from earlier work
From the text: as §1

[14] = test system: β2-adrenergic receptor (β2AR); conditions: ref Beautrait et al., 2017; cited from earlier work
From the text: as §1

[15] = test system: V2-vasopressin receptor (V2R); conditions: ref Beautrait et al., 2017; cited from earlier work
From the text: as §1

CLR-RAMP complexes [16] = test: Effect of barbadin on cAMP accumulation in β-arrestin KO HEK293 cells; format: cell-based; conditions: 100 μM barbadin
CLR-RAMP complexes [17] = test: Effect of barbadin on CLR-RAMP internalisation; format: cell-based; conditions: any CLR-RAMP complex, at concentration that blocked GLP-1R internalisation
[18] = test system: free fatty acid receptor 2 (FFAR2); conditions: ref Wang et al., 2020; cited from earlier work
β-arrestin-AP2 complex = conditions: ref Beautrait et al., 2017; cited from earlier work
From the text: The canonical role of β-arrestins is the desensitisation of G protein signalling; steric hindrance to disrupt G protein-receptor association and acting as scaffolds for proteins which decrease the G protein activity and output e.g. phosphodiesterases (PDEs) ([Perry et al., 2002]). Additionally, β-arrestins mediate agonist dependent internalisation at many GPCRs, through the recruitment of β2-adaptin (AP2) and subsequently clathrin, to mediate endocytosis. […] Barbadin is an inhibitor of the β-arresti ...

T1 sequence (Q16602 23-461): as the sequence (Q16602 23-461) above
T1 sequence (O60895 43-175): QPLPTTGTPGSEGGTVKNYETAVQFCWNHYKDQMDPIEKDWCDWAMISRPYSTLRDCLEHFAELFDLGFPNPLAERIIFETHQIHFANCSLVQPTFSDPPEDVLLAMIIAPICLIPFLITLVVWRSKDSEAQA

- Emax, β-arrestin2 recruitment (CLR-RAMP2 [1]; CLR-Nluc + FLAG-RAMP2 + β-arrestin2-YFP, BRET, mean ± SEM): 9 ± 1 BRET units (x10^-3)
- Emax, β-arrestin2 recruitment (CLR-RAMP2 [1]; GRK4 overexpressed): 10 ± 2 BRET units (x10^-3)
- Emax, β-arrestin2 recruitment (CLR-RAMP2 [1]; GRK series: Vector): 9 ± 1 BRET units (x10^-3)
- Emax, β-arrestin1 recruitment (CLR-RAMP1 [2]; CLR-Nluc + FLAG-RAMP1 + β-arrestin1-YFP, BRET, mean ± SEM): ~63 ± 27 BRET units (x10^-3)
- Emax, β-arrestin1 recruitment (CLR-RAMP1 [2]; GRK2 overexpressed): ~46 ± 5 BRET units (x10^-3)
- Emax, β-arrestin1 recruitment (CLR-RAMP1 [2]; GRK3 overexpressed): ~32 ± 2 BRET units (x10^-3)
- Emax, β-arrestin1 recruitment (CLR-RAMP1 [2]; GRK4 overexpressed): ~28 ± 7 BRET units (x10^-3)
- Emax, β-arrestin1 recruitment (CLR-RAMP1 [2]; GRK6 overexpressed): ~10 ± 6 BRET units (x10^-3)
- Emax, β-arrestin1 recruitment (CLR-RAMP1 [2]; GRK series: Vector): ~63 ± 26 BRET units (x10^-3)
- Emax, internalisation (CLR-RAMP1 [3]): ~-63 ± 41 BRET units (x10^-3)
- Emax, β-arrestin2 recruitment (CLR-RAMP1 [4]; CLR-Nluc + FLAG-RAMP1 + β-arrestin2-YFP, BRET, mean ± SEM): ~98 ± 21 BRET units (x10^-3)
- Emax, β-arrestin2 recruitment (CLR-RAMP1 [4]; GRK2 overexpressed): ~54 ± 47 BRET units (x10^-3)
- Emax, β-arrestin2 recruitment (CLR-RAMP1 [4]; GRK3 overexpressed): ~49 ± 8 BRET units (x10^-3)
- Emax, β-arrestin2 recruitment (CLR-RAMP1 [4]; GRK4 overexpressed): ~45 ± 4 BRET units (x10^-3)
- Emax, β-arrestin2 recruitment (CLR-RAMP1 [4]; GRK series: Vector): ~98 ± 21 BRET units (x10^-3)
- Effect of barbadin pretreatment on cAMP accumulation (CLR-RAMP2 [5]; AM2 at CLR-RAMP2): far smaller
- Change in cAMP potency on β-arrestin2 overexpression (CLR-RAMP2 [5]; CLR-RAMP2, HEK293T, p = 0.02): significant decrease in potency
- Emax, internalisation (CLR-RAMP2 [7]): ~-20 ± 18 BRET units (x10^-3)
- Emax, internalisation (CLR-RAMP3 [8]): ~-8 ± 3 BRET units (x10^-3)
- Emax, β-arrestin1 recruitment (CLR-RAMP2 [9]; CLR-Nluc + FLAG-RAMP2 + β-arrestin1-YFP, BRET, mean ± SEM): 3 ± 1 BRET units (x10^-3)
- Emax, β-arrestin1 recruitment (CLR-RAMP2 [9]; GRK2 overexpressed): 7 ± 1 BRET units (x10^-3)
- Emax, β-arrestin1 recruitment (CLR-RAMP2 [9]; GRK3 overexpressed): 11 ± 1 BRET units (x10^-3)
- Emax, β-arrestin1 recruitment (CLR-RAMP2 [9]; GRK4 overexpressed): 4 ± 1 BRET units (x10^-3)
- Emax, β-arrestin1 recruitment (CLR-RAMP2 [9]; GRK series: Vector): 3 ± 1 BRET units (x10^-3)
Compound: CSCC[C@H](NC(=O)[C@H](CC(C)C)NC(=O)[C@H](CCC(N)=O)NC(=O)[C@H](Cc1c[nH]c2ccccc12)NC(=O)[C@H](CC(C)C)NC(=O)[C@H](CCCNC(=N)N)NC(=O)[C@H](Cc1c[nH]cn1)NC(=O)[C@H](CO)NC(=O)[C@H](CC(C)C)NC(=O)[C@H](CC(N)=O)NC(=O)[C@H](CCC(N)=O)NC(=O)[C@@H](NC(=O)[C@H](CCC(N)=O)NC(=O)[C@@H]1CSSC[C@H](NC(=O)CNC(=O)[C@@H](NC(=O)[C@H](CCCNC(=N)N)NC(=O)[C@H](CC(C)C)NC(=O)[C@H](CC(C)C)NC(=O)[C@H](CCC(N)=O)NC(=O)[C@H](C)NC(=O)[C@H](CCC(N)=O)NC(=O)[C@@H](N)[C@@H](C)O)C(C)C)C(=O)N[C@@H](C(C)C)C(=O)N[C@@H](CC(C)C)C(=O)NCC(=O)N[C@@H]([C@@H](C)O)C(=O)N1)C(C)C)C(=O)NCC(=O)N1CCC[C@H]1C(=O)N[C@@H](C)C(=O)NCC(=O)N[C@@H](CCCNC(=N)N)C(=O)N[C@@H](CCC(N)=O)C(=O)N[C@@H](CC(=O)O)C(=O)N[C@@H](CO)C(=O)N[C@@H](C)C(=O)N1CCC[C@H]1C(=O)N[C@H](C(=O)N[C@@H](CC(=O)O)C(=O)N1CCC[C@H]1C(=O)N[C@@H](CO)C(=O)N[C@@H](CO)C(=O)N1CCC[C@H]1C(=O)N[C@@H](Cc1c[nH]cn1)C(=O)N[C@@H](CO)C(=O)N[C@@H](Cc1ccc(O)cc1)C(N)=O)C(C)C [AM2, adrenomedullin 2]
- Rank order of potency (CLR-RAMP3 [6]): equipotent agonists

- Effect on GLP-1R internalisation [10]: successfully block
- Effect on GLP-1R internalisation ([10]; listed as barbadin): inhibit GLP-1R internalisation
Compound: Nn1cnc2scc(-c3ccc(Cc4ccccc4)cc3)c2c1=O [Barbadin]
- Block of receptor internalisation (5-HT2CR): successfully block
- Effect of barbadin on cAMP accumulation (CLR-RAMP complexes [11]): reduce cAMP accumulation
- Effect of barbadin on cAMP accumulation (CLR-RAMP complexes [11]; listed as barbadin): significantly reduce cAMP accumulation; also recorded: significantly attenuated cAMP signalling
- Block of receptor internalisation [12]: successfully block
- Block of receptor internalisation [13]: successfully block
- Block of receptor internalisation [14]: successfully block
- Block of receptor internalisation [15]: successfully block
- Effect of barbadin on cAMP accumulation (CLR-RAMP complexes [16]): agonist dependent reduction in cAMP accumulation
- Effect of barbadin on agonist-mediated CLR internalisation (CLR-RAMP complexes [17]): did not block agonist-mediated CLR internalisation; also recorded: no effect on receptor internalisation
- Block of receptor internalisation [18]: successfully block
- Effect on β-arrestin recruitment (β-arrestin-AP2 complex): without inhibiting β-arrestin recruitment
- Inhibition of β-arrestin-AP2 interaction (β-arrestin-AP2 complex): inhibitor of the β-arrestin-AP2 interacting domain
